Test results from the NIST ThermoML archive (doi:10.1016/j.jct.2009.04.002).
“And” between values parts separate entries of the source, which are not always exact repeats. Equal entries are not always repeated. Numbers after ± are expanded uncertainties.

Details: Liquid

**Q.** Which viscosity (353.15 K, Rotational Automated Viscometer) does the source give for CC(C)CCCCCCCOC(=O)c1ccccc1C(=O)OCCCCCCCC(C)C here?
**A.** 8.257 ± 0.17 mPa·s and 8.376 ± 0.17 mPa·s and 8.37 ± 0.17 mPa·s

**Q.** And the mass density (353.15 K, SVM3000 rotational viscometer)?
**A.** 924.4 ± 13 kg/m3 and 924.1 ± 13 kg/m3

**Q.** And the viscosity (358.15 K, Rotational Automated Viscometer)?
**A.** 7.193 ± 0.15 mPa·s and 7.3 ± 0.15 mPa·s and 7.297 ± 0.15 mPa·s

**Q.** And the mass density (358.15 K, SVM3000 rotational viscometer)?
**A.** 920.7 ± 13 kg/m3 and 920.9 ± 13 kg/m3 and 920.6 ± 13 kg/m3

**Q.** And the viscosity (363.15 K, Rotational Automated Viscometer)?
**A.** 6.329 ± 0.13 mPa·s and 6.414 ± 0.13 mPa·s and 6.412 ± 0.13 mPa·s

**Q.** What about the mass density (363.15 K, SVM3000 rotational viscometer) of the same compound?
**A.** 917.2 ± 13 kg/m3 and 917.4 ± 13 kg/m3 and 917 ± 13 kg/m3

**Q.** And the viscosity (368.15 K, Rotational Automated Viscometer)?
**A.** 5.602 ± 0.12 mPa·s and 5.677 ± 0.11 mPa·s and 5.675 ± 0.11 mPa·s

**Q.** What about the mass density (368.15 K, SVM3000 rotational viscometer) of the same compound?
**A.** 913.7 ± 13 kg/m3 and 913.9 ± 13 kg/m3 and 913.5 ± 13 kg/m3

**Q.** What about the viscosity (373.15 K, 100 kPa, Falling or rolling sphere viscometry) of the same compound?
**A.** 5.05 ± 0.41 mPa·s and 4.8 ± 0.39 mPa·s and 5.09 ± 0.41 mPa·s

**Q.** And the mass density (373.15 K, 100 kPa, Vibrating tube method)?
**A.** 909.5 ± 10 kg/m3 and 910 ± 10 kg/m3 and 909.4 ± 10 kg/m3

**Q.** What about the viscosity (373.15 K, 1000 kPa, Falling or rolling sphere viscometry) of the same compound?
**A.** 5.12 ± 0.41 mPa·s and 4.87 ± 0.39 mPa·s and 5.16 ± 0.42 mPa·s

**Q.** And the mass density (373.15 K, 1000 kPa, Vibrating tube method)?
**A.** 911 ± 10 kg/m3 and 911.6 ± 10 kg/m3

**Q.** And the viscosity (373.15 K, 5000 kPa, Falling or rolling sphere viscometry)?
**A.** 5.44 ± 0.44 mPa·s and 5.17 ± 0.42 mPa·s and 5.47 ± 0.44 mPa·s

**Q.** And the mass density (373.15 K, 5000 kPa, Vibrating tube method)?
**A.** 914.3 ± 10 kg/m3 and 914.8 ± 10 kg/m3 and 914.2 ± 10 kg/m3

**Q.** What about the viscosity (373.15 K, 10000 kPa, Falling or rolling sphere viscometry) of the same compound?
**A.** 5.86 ± 0.47 mPa·s and 5.57 ± 0.45 mPa·s and 5.89 ± 0.47 mPa·s

**Q.** What about the mass density (373.15 K, 10000 kPa, Vibrating tube method) of the same compound?
**A.** 918.1 ± 10 kg/m3 and 918.6 ± 10 kg/m3 and 918 ± 10 kg/m3

**Q.** And the viscosity (373.15 K, 20000 kPa, Falling or rolling sphere viscometry)?
**A.** 6.79 ± 0.55 mPa·s and 6.44 ± 0.52 mPa·s and 6.8 ± 0.55 mPa·s

**Q.** And the mass density (373.15 K, 20000 kPa, Vibrating tube method)?
**A.** 925.3 ± 10 kg/m3 and 925.9 ± 10 kg/m3 and 925.2 ± 10 kg/m3

**Q.** And the viscosity (373.15 K, 30000 kPa, Falling or rolling sphere viscometry)?
**A.** 7.83 ± 0.63 mPa·s and 7.42 ± 0.6 mPa·s

**Q.** And the mass density (373.15 K, 30000 kPa, Vibrating tube method)?
**A.** 931.9 ± 10 kg/m3 and 932.5 ± 10 kg/m3

**Q.** And the viscosity (373.15 K, 40000 kPa, Falling or rolling sphere viscometry)?
**A.** 9 ± 0.73 mPa·s and 8.52 ± 0.69 mPa·s and 8.98 ± 0.72 mPa·s

**Q.** And the mass density (373.15 K, 40000 kPa, Vibrating tube method)?
**A.** 938.1 ± 10 kg/m3 and 938.7 ± 10 kg/m3

**Q.** What about the viscosity (373.15 K, 50000 kPa, Falling or rolling sphere viscometry) of the same compound?
**A.** 10.3 ± 0.8 mPa·s and 9.75 ± 0.79 mPa·s

**Q.** And the mass density (373.15 K, 50000 kPa, Vibrating tube method)?
**A.** 943.9 ± 10 kg/m3 and 944.6 ± 10 kg/m3 and 944 ± 10 kg/m3

**Q.** What about the viscosity (373.15 K, 60000 kPa, Falling or rolling sphere viscometry) of the same compound?
**A.** 11.7 ± 0.9 mPa·s and 11.1 ± 0.9 mPa·s

**Q.** What about the mass density (373.15 K, 60000 kPa, Vibrating tube method) of the same compound?
**A.** 949.5 ± 10 kg/m3 and 950.1 ± 10 kg/m3

**Q.** And the mass density (373.15 K, 70000 kPa, Vibrating tube method)?
**A.** 954.7 ± 10 kg/m3 and 955.2 ± 10 kg/m3 and 954.6 ± 10 kg/m3

**Q.** What about the viscosity (373.15 K, Rotational Automated Viscometer) of the same compound?
**A.** 4.989 ± 0.1 mPa·s and 5.059 ± 0.1 mPa·s and 5.057 ± 0.1 mPa·s

**Q.** What about the mass density (373.15 K, SVM3000 rotational viscometer) of the same compound?
**A.** 910.3 ± 13 kg/m3 and 910.5 ± 13 kg/m3 and 910 ± 13 kg/m3

**Q.** And the mass density (398.15 K, 100 kPa, Vibrating tube method)?
**A.** 892.2 ± 10 kg/m3 and 892.8 ± 10 kg/m3

**Q.** And the mass density (398.15 K, 1000 kPa, Vibrating tube method)?
**A.** 892.8 ± 10 kg/m3 and 893.5 ± 10 kg/m3 and 892.9 ± 10 kg/m3

**Q.** What about the mass density (398.15 K, 5000 kPa, Vibrating tube method) of the same compound?
**A.** 896.4 ± 10 kg/m3 and 896.9 ± 10 kg/m3 and 896.3 ± 10 kg/m3

**Q.** And the mass density (398.15 K, 10000 kPa, Vibrating tube method)?
**A.** 900.6 ± 10 kg/m3 and 901.1 ± 10 kg/m3 and 900.5 ± 10 kg/m3

**Q.** What about the mass density (398.15 K, 20000 kPa, Vibrating tube method) of the same compound?
**A.** 908.6 ± 10 kg/m3 and 909.1 ± 10 kg/m3 and 908.5 ± 10 kg/m3

**Q.** What about the mass density (398.15 K, 30000 kPa, Vibrating tube method) of the same compound?
**A.** 915.8 ± 10 kg/m3 and 916.4 ± 10 kg/m3

**Q.** And the mass density (398.15 K, 40000 kPa, Vibrating tube method)?
**A.** 922.5 ± 10 kg/m3 and 923.2 ± 10 kg/m3 and 922.6 ± 10 kg/m3

**Q.** And the mass density (398.15 K, 50000 kPa, Vibrating tube method)?
**A.** 928.8 ± 10 kg/m3 and 929.5 ± 10 kg/m3 and 928.9 ± 10 kg/m3

**Q.** And the mass density (398.15 K, 60000 kPa, Vibrating tube method)?
**A.** 934.8 ± 10 kg/m3 and 935.5 ± 10 kg/m3 and 934.9 ± 10 kg/m3

**Q.** And the mass density (398.15 K, 70000 kPa, Vibrating tube method)?
**A.** 940.4 ± 10 kg/m3 and 941 ± 10 kg/m3
